Measurements taken from the Kinase Knowledgebase extract (Sharma et al. 2016).

Tests used:
PIK3CA (human) [1] = biological target: PIK3CA (human) (UniProt P42336); test: Inhibition of A2780 Cell Proliferation
PIK3CA (human) [2] = biological target: PIK3CA (human) (UniProt P42336); test: Inhibition of PIK3CA Kinase Activity

PIK3CA (human), sequence (P42336 whole entry, looked up): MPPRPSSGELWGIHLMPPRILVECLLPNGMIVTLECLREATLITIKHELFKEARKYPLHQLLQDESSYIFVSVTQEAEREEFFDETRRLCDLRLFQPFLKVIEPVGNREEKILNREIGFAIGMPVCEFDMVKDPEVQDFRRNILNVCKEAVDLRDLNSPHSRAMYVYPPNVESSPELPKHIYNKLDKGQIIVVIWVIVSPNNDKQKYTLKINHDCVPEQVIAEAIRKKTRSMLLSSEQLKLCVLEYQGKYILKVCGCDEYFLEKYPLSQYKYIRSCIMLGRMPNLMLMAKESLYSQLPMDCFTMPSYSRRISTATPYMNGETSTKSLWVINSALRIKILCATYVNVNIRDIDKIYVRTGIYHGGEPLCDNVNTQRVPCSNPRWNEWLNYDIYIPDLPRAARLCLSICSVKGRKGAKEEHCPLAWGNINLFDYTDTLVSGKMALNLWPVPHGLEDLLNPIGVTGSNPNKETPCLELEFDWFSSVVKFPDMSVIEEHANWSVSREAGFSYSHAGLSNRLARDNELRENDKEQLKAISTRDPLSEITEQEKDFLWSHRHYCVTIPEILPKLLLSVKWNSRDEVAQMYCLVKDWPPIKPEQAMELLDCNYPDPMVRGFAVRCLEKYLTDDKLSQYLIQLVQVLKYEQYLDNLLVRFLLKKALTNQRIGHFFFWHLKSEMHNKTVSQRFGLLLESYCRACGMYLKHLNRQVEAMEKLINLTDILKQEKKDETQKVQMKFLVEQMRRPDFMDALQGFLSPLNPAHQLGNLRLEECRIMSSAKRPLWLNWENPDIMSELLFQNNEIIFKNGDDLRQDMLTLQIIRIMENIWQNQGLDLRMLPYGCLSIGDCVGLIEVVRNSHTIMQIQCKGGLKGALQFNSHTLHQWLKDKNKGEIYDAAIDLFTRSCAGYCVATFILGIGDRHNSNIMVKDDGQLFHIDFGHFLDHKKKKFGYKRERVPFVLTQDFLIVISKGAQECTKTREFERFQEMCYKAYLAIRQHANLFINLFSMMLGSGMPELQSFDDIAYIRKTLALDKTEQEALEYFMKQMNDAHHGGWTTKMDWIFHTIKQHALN

Row | EC50 (PIK3CA (human) [1]) [nM] | IC50 (PIK3CA (human) [2]) [nM] | SMILES
1 | < 10000 | < 1000 | Nc1ncc(-c2ccc3nc(NC(=O)c4cccc(Cl)c4)cn3c2)cc1C(F)(F)F
2 | < 10000 | < 1000 | C[C@@H](NC(=O)OC(C)(C)C)C(=O)Nc1cn2nc(-c3cnc(N)c(C(F)(F)F)c3)ccc2n1
3 | < 10000 | < 1000 | CC(=O)Nc1cn2cc(-c3cnc(N)c(C=NN(C)C)c3)ccc2n1
4 | < 1000 | < 1000 | CC(=O)Nc1cn2cc(-c3cnc(N)c(-c4cccc(C(F)(F)F)c4)c3)ccc2n1
5 | < 10000 | < 1000 | CC(=O)Nc1cn2cc(-c3cnc(N)c(-c4ccccc4)n3)ccc2n1
6 | < 10000 | < 1000 | CC(=O)Nc1cn2nc(-c3cnc(N)c(-c4cccc(C(F)(F)F)c4)c3)ccc2n1
7 | < 25000 | < 1000 | NCCCC(=O)Nc1cn2nc(-c3cnc(N)c(C(F)(F)F)c3)ccc2n1
8 | < 10000 | < 1000 | CC(=O)Nc1cn2c(C)c(-c3cnc(N)c(C(F)(F)F)c3)ccc2n1
9 | < 25000 | < 10000 | CC(=O)Nc1cn2cc(-c3cnc(N)c(OC4CCN(C)CC4)n3)ccc2n1
10 | < 25000 | < 10000 | CCN(CC)CCOc1cc(-c2ccc3nc(NC(C)=O)cn3c2)cnc1N
11 | < 25000 | < 1000 | CC(=O)Nc1cn2cc(-c3cnc(N)cn3)ccc2n1
12 | < 10000 | < 1000 | CC(=O)Nc1cn2cc(-c3ccc(N)nc3)ccc2n1
13 | < 10000 | < 1000 | CC(=O)Nc1cn2cc(-c3cnc(N)c(N4CCN(C)CC4)n3)ccc2n1
14 | < 25000 | < 1000 | CC(=O)Nc1cn2cc(-c3cnc(N)c(-c4ccc(F)cc4)c3)ccc2n1
15 | < 25000 | < 1000 | NC(=O)N1CC[C@H]1C(=O)Nc1cn2cc(-c3cnc(N)c(C(F)(F)F)c3)ccc2n1
16 | < 10000 | < 1000 | Nc1ncc(-c2ccc3nc(NC(=O)CCO)cn3c2)cc1C(F)(F)F
17 | < 10000 | < 1000 | CC(=O)Nc1cn2cc(-c3cnc(N)c(Cl)c3)ccc2n1
18 | < 10000 | < 1000 | CN(C)C1CCN(C(=O)Nc2cn3cc(-c4cnc(N)c(C(F)(F)F)c4)ccc3n2)C1 (configuration not stated)
19 | < 10000 | < 1000 | Nc1ncc(-c2ccc3nc(NC(=O)CO[C@@H]4CCNC4)cn3c2)cc1C(F)(F)F
20 | < 10000 | < 1000 | Nc1ncc(-c2ccc3nc(NC(=O)CCCN4CCOCC4)cn3c2)cc1C(F)(F)F
21 | < 25000 | < 1000 | CCCc1c(NC(C)=O)nc2ccc(-c3cnc(N)c(C(F)(F)F)c3)cn12

Row | EC50 (PIK3CA (human) [1]) [nM] | IC50 (PIK3CA (human) [2]) [nM] | SMILES
22 | < 25000 | < 25000 | CNC(=O)[C@@H]1CCN1C(=O)Nc1cn2cc(-c3cnc(N)c(C(F)(F)F)c3)ccc2n1
23 | < 1000 | < 1000 | COCC(=O)Nc1cn2nc(-c3cnc(N)c(C(F)(F)F)c3)ccc2n1
24 | < 25000 | < 1000 | COC[C@@H]1CCCN1C(=O)Nc1cn2cc(-c3cnc(N)c(C(F)(F)F)c3)ccc2n1
25 | < 1000 | < 1000 | CC(=O)Nc1cn2nc(-c3cnc(N)c(-c4ccc(C(F)(F)F)cc4)c3)ccc2n1
26 | < 10000 | < 1000 | CC(=O)Nc1nc2ccc(-c3cnc(N)c(C(F)(F)F)c3)cn2c1C#Cc1ccccn1
27 | < 10000 | < 1000 | CC(C)(C)OC(=O)NCC(=O)Nc1cn2cc(-c3cnc(N)c(C(F)(F)F)c3)ccc2n1
28 | < 10000 | < 1000 | COc1nc(-c2ccc3nc(NC(C)=O)cn3n2)cnc1N
29 | < 1000 | < 1000 | CC(=O)Nc1cn2cc(-c3cnc(N)c(Oc4ccc(F)cc4)n3)ccc2n1
30 | < 1000 | < 1000 | CC(=O)Nc1cn2nc(-c3cnc(N)c(-c4ccccc4)c3)ccc2n1
31 | < 25000 | < 1000 | CON=Cc1cc(-c2ccc3nc(NC(C)=O)cn3c2)cnc1N
32 | < 25000 | < 1000 | CC(=O)Nc1nc2cc(C)c(-c3cnc(N)c(C(F)(F)F)c3)cc2s1
33 | < 10000 | < 1000 | CCN(CC)Cc1cc(-c2ccc3nc(NC(C)=O)cn3n2)cnc1N
34 | < 1000 | < 1000 | CNCC(=O)Nc1cn2cc(-c3cnc(N)c(C(F)(F)F)c3)ccc2n1
35 | < 10000 | < 1000 | CCOC(=O)CC(=O)Nc1cn2cc(-c3cnc(N)c(C(F)(F)F)c3)ccc2n1
36 | < 25000 | < 1000 | Nc1ncc(-c2ccc3nc(NC(=O)c4ccccn4)cn3c2)cc1C(F)(F)F
37 | < 25000 | < 1000 | Nc1ncc(-c2ccc3nc(NC(=O)C(F)(F)F)cn3c2)cn1
38 | < 1000 | < 1000 | COc1ccc(CC(=O)Nc2cn3cc(-c4cnc(N)c(C(F)(F)F)c4)ccc3n2)cc1
39 | < 10000 | < 1000 | Nc1ncc(-c2ccc3nc(NC(=O)[C@@H]4CCCCN4Cc4ccccc4)cn3c2)cc1C(F)(F)F
40 | < 10000 | < 1000 | COCCOc1nc(-c2ccc3nc(NC(C)=O)sc3c2)cnc1N
41 | < 10000 | < 1000 | Nc1ncc(-c2ccc3nc(NC(=O)N4CC[C@H](O)C4)cn3c2)cc1C(F)(F)F
42 | < 10000 | < 1000 | Nc1ncc(-c2ccc3nc(NC(=O)c4cccc(F)c4)cn3c2)cc1C(F)(F)F

Row | EC50 (PIK3CA (human) [1]) [nM] | IC50 (PIK3CA (human) [2]) [nM] | SMILES
43 | < 10000 | < 1000 | C/C=C/c1c(NC(C)=O)nc2ccc(-c3cnc(N)c(C(F)(F)F)c3)cn12
44 | < 25000 | < 1000 | CC(=O)Nc1cccc(-c2c(NC(C)=O)nc3ccc(-c4cnc(N)c(C(F)(F)F)c4)cn23)c1
45 | < 1000 | < 1000 | CC(=O)Nc1cn2cc(-c3cnc(N)c(C(=O)NCCN4CCCC4)n3)ccc2n1
46 | < 10000 | < 1000 | CC(=O)Nc1cn2nc(-c3cnc(N)c(C(=O)NCCN4CCCC4)c3)ccc2n1
47 | < 10000 | < 1000 | CC(=O)Nc1cn2nc(-c3cnc(N)c(-c4ccccc4Oc4ccccc4)c3)ccc2n1
48 | < 25000 | < 1000 | CC(=O)Nc1cn2cc(-c3cnc(N)c(C(=O)N4CCN(C(=O)OC(C)(C)C)CC4)c3)ccc2n1
49 | < 10000 | < 1000 | Nc1ncc(-c2ccc3nc(NC(=O)CN4CCCCC4)cn3c2)cc1C(F)(F)F
50 | < 10000 | < 1000 | CCN1CC[C@@H](OCC(=O)Nc2cn3cc(-c4cnc(N)c(C(F)(F)F)c4)ccc3n2)C1
51 | < 1000 | < 1000 | CC(=O)Nc1cn2nc(-c3cnc(N)c(-c4ccccc4F)c3)ccc2n1
52 | < 25000 | < 1000 | CC(=O)Nc1nc2ccc(-c3cnc(N)c(C(F)(F)F)c3)cn2c1Br
53 | < 1000 | < 1000 | CC(=O)Nc1nc2ccc(-c3cnc(N)c(C(F)(F)F)c3)cn2c1C#N
54 | < 25000 | < 1000 | CC(=O)Nc1cn2cc(-c3cnc(N)c(OC4CNC4)n3)ccc2n1
55 | < 25000 | < 1000 | CNC(=O)c1ccc(-c2c(NC(C)=O)nc3ccc(-c4cnc(N)c(C(F)(F)F)c4)cn23)cc1
56 | < 10000 | < 1000 | CC(=O)Nc1cn2cc(-c3cnc(N)c(Oc4ccc(N5CCN(C(C)=O)CC5)cc4)n3)ccc2n1
57 | < 10000 | < 1000 | Nc1ncc(-c2ccc3nc(NC(=O)COCc4ccccc4)cn3n2)cc1C(F)(F)F
58 | < 25000 | < 1000 | CC(=O)Nc1cn2cc(-c3cnc(N)c(C(=O)N4CCNCC4)c3)ccc2n1
59 | < 10000 | < 1000 | CC(=O)Nc1nc2ccc(-c3cnc(N)c(C(F)(F)F)c3)cn2c1C#Cc1ccccc1
60 | < 10000 | < 1000 | CCN1CCC(OCC(=O)Nc2cn3cc(-c4cnc(N)c(C(F)(F)F)c4)ccc3n2)CC1
61 | < 25000 | < 1000 | CC(=O)Nc1nc2cc(F)c(-c3cnc(N)c(C(F)(F)F)c3)cc2s1
62 | < 25000 | < 10000 | COc1cc(-c2ccc3nc(NC(C)=O)cn3n2)c(C)nc1N
63 | < 25000 | < 1000 | CC(=O)Nc1cn2cc(-c3cnc(N)c(Br)n3)ccc2n1

Row | EC50 (PIK3CA (human) [1]) [nM] | IC50 (PIK3CA (human) [2]) [nM] | SMILES
64 | < 10000 | < 1000 | COCCOc1nc(-c2ccc3nc(NC(=O)CN4CCCCC4)cn3c2)cnc1N
65 | < 10000 | < 1000 | CC(=O)Nc1cn2cc(-c3cnc(N)c(C)c3)ccc2n1
66 | < 10000 | < 1000 | COC(=O)C1CCN(C(=O)Nc2cn3cc(-c4cnc(N)c(C(F)(F)F)c4)ccc3n2)C1 (configuration not stated)
67 | < 10000 | < 1000 | Nc1ncc(-c2ccc3nc(NC(=O)CN4CCCCC4)cn3n2)cc1C(F)(F)F
68 | < 25000 | < 1000 | Nc1ncc(-c2ccc3nc(NC(=O)N4CCCC4c4ccccn4)cn3c2)cc1C(F)(F)F (configuration not stated)
69 | < 10000 | < 1000 | CC(C)C(=O)Nc1cn2cc(-c3cnc(N)c(OCC(F)(F)F)n3)ccc2n1
70 | < 25000 | < 1000 | CC(=O)Nc1cn2nc(-c3cnc(N)c(C(=O)NCCN)c3)ccc2n1
71 | < 10000 | < 1000 | CNCC(=O)Nc1cn2cc(-c3cnc(N)c(OCCOC)n3)ccc2n1
72 | < 1000 | < 1000 | CC(=O)Nc1cn2nc(-c3cnc(N)c(-c4ccccc4OC(F)(F)F)c3)ccc2n1
73 | < 25000 | < 25000 | COc1c(-c2cnc(N)c(C(F)(F)F)c2)ccc2nc(NC(=O)C(F)(F)F)cn12
74 | < 10000 | < 1000 | CC(=O)Nc1nc2ccc(-c3cnc(N)c(C(F)(F)F)c3)cn2c1CCc1ccccc1
75 | < 25000 | < 1000 | CC(=O)Nc1cn2nc(-c3cnc(N)c(C(=O)NCCNS(C)(=O)=O)c3)ccc2n1
76 | < 25000 | < 1000 | CC(=O)Nc1cn2cc(-c3cnc(N)c(C(=O)NCCNS(C)(=O)=O)n3)ccc2n1
77 | < 25000 | < 1000 | Nc1ncc(-c2ccc3nc(NC(=O)c4ccncc4)cn3c2)cc1C(F)(F)F
78 | < 10000 | < 1000 | Nc1ncc(-c2ccc3nc(NC(=O)C4CCN4)cn3c2)nc1OCC(F)(F)F (configuration not stated)
79 | < 1000 | < 1000 | CC(C)(C)OC(=O)N1CCN(c2ccc(C(=O)Nc3cn4cc(-c5cnc(N)c(C(F)(F)F)c5)ccc4n3)cn2)CC1
80 | < 1000 | < 1000 | CNCC(=O)Nc1cn2nc(-c3cnc(N)c(C(F)(F)F)c3)ccc2n1
81 | < 10000 | < 1000 | CC(=O)Nc1cn2cc(-c3cnc(N)c(N4CCOCC4)n3)ccc2n1
